The results in this text go back to patent US12319655B2, “RAF kinase inhibitors and methods of use thereof” (Deciphera Pharmaceuticals, LLC, priority 2021, dated 2025).

Type in all cases: cell-based
The test system of assay [1] is Miapaca-2 cells. As to the kind of experiment: MiaPaca-2 Combination Cell proliferation Assay (1) with cobimetinib. The following applies: MiaPaca-2 cell proliferation, read-out: MiaPaca-2 Combo (1) IC50.
Assay [2] relates to Miapaca-2 cells. Kind of assay: MiaPaca-2 Combination Cell Proliferation Assay (2) with cobimetinib. As to conditions: MiaPaca-2 cell proliferation, read-out: MiaPaca-2 Combo (2) IC50. On the procedure: MiaPaca-2 Combination Cell Proliferation Assay (2)
Miapaca-2 cells (catalog #CRL-1420) are obtained from the American Type Culture Collect (ATCC, Manassas, VA). Briefly, cells were grown in DMEM supplemented with 10% characterized fetal bovine serum (Invitrogen, Carlsbad, CA), 2.5% New Zealand sourced horse serum and 1% Penicillin/Streptomycin/L-Glutamine at 37° C., 5% CO2, and 95% humidity. Cells are expanded until reaching 70-95% confluency at which point they are subcultured or harvested for assay use. Using the Beckman Coulter Echo 650, a threefold, 8-point serial dilution of compound was spotted column wise into a 384 well black, clear bottom, tissue culture treated plate. Likewise, a threefold, 8-point serial dilution of cobimetinib was spotted row wise into the 384 well black, clear bottom plate containing compound. DMSO concentration was constant across all wells at 0.4%. Seven hundred fifty cells are added per well in 50 μL complete growth medium in each 384-well plate. Plates are incubated for 67-72 hours at 37° C., 5% CO2, and 95% humidity. At the end of the incubation, 10 μL of a 440 μM solution of resazurin (Sigma, St. Louis, MO) in PBS is added to each well of the plate and plates are incubated for an additional 4-6 hours at 37° C., 5% CO2, and 95% humidity. Plates are read on a Synergy2 or equivalent reader (Biotek, Winooski VT) using an excitation of 540 nm and an emission of 600 nm. Drug synergy was assessed via BLISS analysis in the Combenefit software (Cancer Research UK Cambridge Institute, Cambridge, UK). Data is analyzed using Prism software (Graphpad, San Diego, CA) to calculate IC50 values. Shifts in test compound IC50 values are reported from top-constrained combination therapy curves.

In a further assay the test system is WM3629 cells. As to the kind of experiment: WM3629 Cell Proliferation Assay (2). The procedure:
WM3629 Cell Proliferation Assay (2)
WM3629 cells (#WM3629-01-0001) are obtained from Rockland Immunochemicals Inc (Gilbertsville, PA). Briefly, cells were grown in MCDB 153 medium (Sigma, #M7403, St. Louis, MO) supplemented with 20% Leibovitz's L-15 (ThermoFisher #11415-064, Waltham, MA), 2% heat inactivated fetal bovine serum (ThermoFisher, #A3840001, Waltham, MA), 5 μg/mL Insulin (Bovine Pancreas) (Sigma, #I0516, St. Louis, MO), 1.68 mM Calcium Chloride (Sigma, #C-34006, St. Louis, MO) and 1% Penicillin/Streptomycin/L-Glutamine (ThermoFisher #10378016, Waltham, MA) at 37° C., 5% CO2, and 95% humidity. Cells are expanded until reaching 70-95% confluency at which point they are sub-cultured or harvested for assay use. Using the Beckman Coulter Echo 650, a serial dilution of test compound is dispensed into a 384-well black clear bottom plate in triplicate. One thousand one hundred twenty-five cells are added per well in 50 μL complete growth medium in the 384-well plate. Plates are incubated for 67-72 hours at 37° C., 5% CO2, and 95% humidity. At the end of the incubation, 10 μL of a 440 μM solution of resazurin (Sigma, #199303, St. Louis, MO) in PBS is added to each well of the plate and plates are incubated for an additional 3-6 hours at 37° C., 5% CO2, and 95% humidity. Plates are read on a Synergy2 or equivalent reader (Biotek, Winooski VT) using an excitation of 540 nm and an emission of 600 nm. Data is analyzed using Prism software (GraphPad, San Diego, CA) to calculate IC50 values.

Consider `CNC(=O)c1cc(-c2cncc(-c3cc(NC(=O)c4ccnc(C(C)(C)F)c4)ccc3C)c2)ccn1` [Example 413], for which the IC50 in the assay with Miapaca-2 cells [1] was in the range of 100 to 500 nM.

As for `COc1ccc(NC(=O)c2ccnc(C(C)(C)C#N)c2)cc1-c1cccc(-c2cc(NC(=O)C3CC3)ncn2)c1` [Example 438], in the assay with Miapaca-2 cells [1], the IC50 was 100 to 500 nM.

On to `CNC(=O)c1cc(-c2cncc(-c3cc(NC(=O)c4ccnc(C(C)(F)F)c4)ccc3C)c2)ccn1` [Example 440], for which, in the assay on Miapaca-2 cells [2], the IC50 fell in the range of 500 to 1000 nM.

Turning to `CNC(=O)c1cc(-c2cc(-c3cc(NC(=O)c4ccnc(C(C)(F)F)c4)ccc3C)ccn2)ccn1` [Example 441], the 50% inhibitory concentration (IC50) with Miapaca-2 cells [2] fell in the range of 100 to 500 nM.

For the molecule `CNC(=O)c1cc(-c2cc(-c3cc(NC(=O)c4ccnc(C(C)C)c4)ccc3C)ccn2)ccn1` [Example 443], the results for the IC50 with Miapaca-2 cells [2] and with WM3629 cells were 100 to 500 nM and ≤ 100 nM, respectively.

In the case of `CNC(=O)c1cc(-c2cncc(-c3cc(NC(=O)c4ccnc(C(C)C)c4)ccc3C)c2)ccn1` [Example 445], the IC50 in the assay with Miapaca-2 cells [2] is 100 to 500 nM; with WM3629 cells, ≤ 100 nM.

As for `CNC(=O)c1cc(-c2cncc(-c3cc(NC(=O)c4ccnc(C(C)C)c4)ccc3C)c2)ncn1` [Example 446], in the assay with WM3629 cells, the IC50 was ≤ 100 nM.

In the case of `Cc1ncc(NC(=O)c2ccnc(C(C)(F)F)c2)cc1-c1ccnc(-c2ccnc(NC(=O)C3CC3)c2)c1` [Example 466], in the assay with WM3629 cells, the concentration for half-maximal inhibition (IC50) is ≤ 100 nM.

Regarding `CNC(=O)c1cc(-c2cc(-c3cc(NC(=O)c4ccnc(C(C)(C)F)c4)ccc3C)c(F)cn2)ccn1` [Example 469], the IC50 in the assay with WM3629 cells is ≤ 100 nM.

As for `CNC(=O)c1cc(-c2cc(-c3cc(NC(=O)c4ccnc(C(C)(C)F)c4)ccc3C)cc(C)n2)ccn1` [Example 470], the half-maximal inhibitory concentration (IC50) in the assay with WM3629 cells is ≤ 100 nM.

Turning to `CNC(=O)c1cc(-c2cc(-c3cc(NC(=O)c4ccnc(C(C)(C)F)c4)ccc3C)cnn2)ccn1` [Example 473], the half-maximal inhibitory concentration (IC50) in the assay on WM3629 cells was ≤ 100 nM.

Take `CNC(=O)c1cc(-c2cc(-c3cc(NC(=O)c4ccnc(C(C)(C)F)c4)ccc3C)ncn2)ccn1` [Example 474]: the IC50 in the assay on WM3629 cells was ≤ 100 nM.

For the molecule `Cc1ccc(NC(=O)c2ccnc(C(C)(C)F)c2)cc1-c1ccnc(-c2ccnc(C(N)=O)c2)c1` [Example 476], the IC50 with Miapaca-2 cells [2] is 100 to 500 nM; in the assay with WM3629 cells, ≤ 100 nM.

`CNC(=O)c1cc(-c2cc(-c3cc(NC(=O)c4cnnc(C(F)(F)F)c4)ccc3C)ccn2)ccn1` [Example 477]: in the assay on WM3629 cells, the 50% inhibitory concentration (IC50) is ≤ 100 nM.

Regarding `CNC(=O)c1cc(-c2cc(-c3cc(NC(=O)c4ccnc(C(C)(C)F)c4)ccc3F)ccn2)ccn1` [Example 479], the figures for the IC50 in the assay with Miapaca-2 cells [2] and in the assay on WM3629 cells were 1000 to 10000 nM and ≤ 100 nM, respectively.

Regarding `CNC(=O)c1cc(-c2cc(-c3cc(NC(=O)c4ccnc(C(C)(C)F)c4)cc(F)c3C)ccn2)ccn1` [Example 480], the IC50 with WM3629 cells is ≤ 100 nM.

On to `CNC(=O)c1cc(-c2cc(-c3cc(NC(=O)c4ccnc(C(C)(C)F)c4)ccn3)ccn2)ccn1` [Example 481], for which, in the assay on WM3629 cells, the IC50 is 1000 to 10000 nM.

Regarding `CNC(=O)c1cc(-c2cc(-c3cc(NC(=O)c4ccnc(C(C)(C)F)c4)c(F)cc3F)ccn2)ccn1` [Example 482], the IC50 with Miapaca-2 cells [2] was 1000 to 10000 nM; in the assay on WM3629 cells, ≤ 100 nM.

As to `Cc1cc(-c2cc(NC(=O)c3ccnc(C(C)(C)F)c3)ccc2C)cc(-c2ccnc(C#N)c2)n1` [Example 483], in the assay with WM3629 cells, the 50% inhibitory concentration (IC50) was ≤ 100 nM.

On to `Cc1cc(-c2cc(NC(=O)c3ccnc(C(C)(C)F)c3)ccc2C)cc(-c2ccnc(C(N)=O)c2)n1` [Example 484], for which the concentration for half-maximal inhibition (IC50) in the assay on Miapaca-2 cells [2] is 500 to 1000 nM; with WM3629 cells, ≤ 100 nM.
